Results reported in patent US20080306007A1, “AGENTS FOR PROPHYLAXIS OR TREATMENT OF NEUROLOGICAL RELATED DISEASES AND CONDITIONS” (Newcastle Innovation Limited, priority 2007, published 2008).

Key:
[1] = test system: synaptosomes (synaptic vesicle turnover); assay: SV turnover assay (FM2-10 loading/unloading) in synaptosomes; type: cell-based, rat
Protocol: (§1) In all SV recycling studies synaptosomes were prepared from rat cerebral cortex by centrifugation on discontinuous percoll gradients (Dunkley et al. 1986). The glutamate release assay was performed as described before (Cousin and Robinson 2000a). Data is presented as Ca^2+-dependent glutamate release, calculated as the difference between release in plus and minus Ca^2+ solutions. Penetratin peptides (Genemed Synthesis) were preincubated with the synaptosomes for 30 min before stimulation and had no effect on Ca^2+-independent release of glutamate.
(§2) Loading of FM2-10 (Molecular Probes) into recycling synaptosomal SVs was measured as previously described. Data is presented as Ca^2+-dependent FM2-10 unloading, which is the difference between release after loading in plus and minus Ca^2+ solutions. Where indicated, synaptosomes were preincubated with penetratin peptide for 30 min prior to stimulation of FM2-10 loading. […] The same assay was used to monitor the effect of penetratin peptide on SV exocytosis. However, in this instance, the synaptosomes were loaded with FM2-10 in plus Ca^2+ Krebs-like solution and, where indicated, were preincubated with penetratin peptide for 30 min prior to stimulation of FM2-10 unloading. Data is presented as Ca^2+-dependent FM2-10 unloading. The SV internalisation assay was performed as previously described.
SVE in synaptosomes was measured to determine whether the phosphorylation sites in dynamin I play a direct role in SVE. Since isolated nerve terminals cannot be transfected with DNA, a membrane-permeable peptide strategy was employed. Mimetic peptides (DynI769-784AA (SEQ ID No. 8) and DynI769-784EE (SEQ ID No. 9)) were designed corresponding to the amino acid sequence of the dynamin I phospho-box (FIG. 5a) and were tagged with a penetratin heptapeptide RRMKWKK (SEQ ID No. 12) to facilitate their delivery into synaptosomes. Briefly, synaptosomes were preincubated in the presence or absence of either penetratin peptide (250 μM) prior to FM2-10 loading stimulated by 30 mM KCl. Accumulated FM2-10 was unloaded by another KCl stimulus (indicated by the solid bar). […] If the phosphorylation-regulated syndapin I interaction itself is essential for SVE, the penetratin-linked peptides may inhibit the process. […] The DynI769-784AA peptide (250 μM) inhibited turnover by more than 40% (57.1±2.1% of control), compared to less than 20% with the DynI769-784EE peptide (250 μM, 81.1±2.4% of control).

[2] = test system: synaptosomes (SV exocytosis); assay: KCl-evoked Ca2+-dependent glutamate release assay in synaptosomes; type: cell-based, rat; conditions: peptide preincubated 30 min; KCl stimulation
Protocol: as §1
A block in SV turnover cannot be ascribed to an inhibition of SVE until an effect on exocytosis has been excluded. Two independent exocytosis assays were conducted to assess this: endogenous glutamate release and FM2-10 unloading. Neither the DynI769-784AA nor DynI769-784EE peptide had any significant effect on KCl-evoked Ca^2+-dependent glutamate release (DynI769-784AA […]±8.4% of control; DynI769-784EE […]±9.5% of control, FIG. 5c). Both peptides had small effects on FM2-10 unloading evoked by 30 mM KCl (DynI769-784AA −81.1±0.8% of control; DynI769-784EE −82.3±0.6% of control, FIG. 5d). Finally, the extent of SVE inhibition by the peptides was quantified by calculating “retrieval efficiency” which takes into account prior exocytosis; a value of less than one indicating a selective SVE inhibition. […]

[3] = test system: synaptosomes (SV exocytosis); assay: FM2-10 unloading (SV exocytosis) assay in synaptosomes; type: cell-based, rat; conditions: evoked by 30 mM KCl; peptide preincubated 30 min before unloading
Protocol: as §2
A block in SV turnover cannot be ascribed to an inhibition of SVE until an effect on exocytosis has been excluded. Two independent exocytosis assays were conducted to assess this: endogenous glutamate release and FM2-10 unloading. […] Finally, the extent of SVE inhibition by the peptides was quantified by calculating “retrieval efficiency” which takes into account prior exocytosis; a value of less than one indicating a selective SVE inhibition. […]

[4] = test system: synaptosomes (SV retrieval from the plasma membrane); assay: FM2-10 SV internalisation assay (purified SVs from synaptosomes); type: cell-based, rat
Protocol: as §2
If SVE was arrested before SV fission occurred, […]. SVs were purified and their fluorescence values were corrected for dye uptake in the absence of Ca^2+ (Ca^2+-dependent) and normalised to control (n=3, mean ±s.e.m.).

[5] = test system: U2OS cells; assay: Transferrin (Tfn) endocytosis (RME) in U2OS cells; type: cell-based; conditions: 15 min peptide preincubation at various concentrations, Tfn 15 min at 37° C.
Protocol: Briefly, non-neuronal U2OS cells were preincubated with vehicle only or each peptide at various concentrations for 15 min. Cells were then incubated with Tfn for 15 min at 37° C., acid washed, fixed and internalized Tfn was detected by fluorescence microscopy. Quantitative analysis of endocytosis in the presence of different concentrations of the peptides is shown as mean fluorescence as a percent of fluorescence in control cells. The results shown in FIG. 11 are representative of 2 independent experiments. Endocytosis in control cells (no peptide) is expressed as 100%.

[6] = molecular target: T1, Syndapin I binding to DynI-PRD (Rattus norvegicus, UniProt Q9Z0W5); assay: GST-DynI-PRD pull-down from rat brain lysate with peptide competition: syndapin I; conditions: increasing amounts of peptide
T1 construct: from tissue; host or cells: target from total rat brain extract; GST-DynI-PRD made in house in Escherichia coli
Protocol: (§3) Total rat brain extract was prepared by homogenising brain tissue in ice-cold lysis buffer (1% Triton X-100, 150 mM NaCl, 25 mM Tris pH 7.4, 1 mM EDTA, 1 mM EGTA, 20 μg/ml leupeptin, 1 mM phenylmethylsulfonyl fluoride and EDTA-free Complete protease inhibitor (Roche)). The homogenate was centrifuged twice at 75,600 g for 30 min at 4° C. The supernatant was pre-cleared by addition of GSH-sepharose beads for 1 h, pelleted at 50 g for 5 min at 4° C., and the supernatant collected. GST-DynI-PRD recombinant proteins were then incubated with an equal amount of tissue lysate at 4° C. for 1 h. Beads were washed extensively with ice-cold 20 mM Tris pH 7.4 containing 1 mM EGTA, eluted in 2×SDS-PAGE sample buffer, resolved on 7.5-15% gradient SDS gels and stained with colloidal Coomassie Blue. Identification of proteins was by matrix-assisted laser desorption ionization time-of-flight mass spectrometry (MALDI-TOF MS). Some peptides were sequenced by tandem MS/MS.
(§4) A common characteristic of most binding sites for SH3 domains is the presence of the core amino acid motif PxxP, which is often followed or preceded by a basic Arg residue. There are 13 such motifs in the dynamin I PRD (numbered from site 1 at the N-terminus of the PRD at Pro-753 in dynamin I). […]

[7] = molecular target: T2, endophilin I binding to DynI-PRD (Rattus norvegicus, UniProt O35179); assay: GST-DynI-PRD pull-down with peptide competition: endophilin I; conditions: increasing amounts of peptide
T2 construct: from tissue; host or cells: target from total rat brain extract; GST-DynI-PRD made in house in Escherichia coli
Protocol: as §3, §4

[8] = test system: p85 (the regulatory subunit of PI-3 kinase); assay: GST-DynI-PRD pull-down with peptide competition: p85; type: binding, rat; conditions: increasing amounts of peptide
Protocol: as §3, §4

[9] = molecular target: T3, amphiphysin I binding to DynI-PRD (Rattus norvegicus, UniProt O08838); assay: GST-DynI-PRD pull-down with peptide competition: amphiphysin I
T3 construct: it is full-length amphiphysin I being detected in the present study; from tissue; host or cells: target from total rat brain extract; GST-DynI-PRD made in house in Escherichia coli
T3 sequence (O08838 1-683): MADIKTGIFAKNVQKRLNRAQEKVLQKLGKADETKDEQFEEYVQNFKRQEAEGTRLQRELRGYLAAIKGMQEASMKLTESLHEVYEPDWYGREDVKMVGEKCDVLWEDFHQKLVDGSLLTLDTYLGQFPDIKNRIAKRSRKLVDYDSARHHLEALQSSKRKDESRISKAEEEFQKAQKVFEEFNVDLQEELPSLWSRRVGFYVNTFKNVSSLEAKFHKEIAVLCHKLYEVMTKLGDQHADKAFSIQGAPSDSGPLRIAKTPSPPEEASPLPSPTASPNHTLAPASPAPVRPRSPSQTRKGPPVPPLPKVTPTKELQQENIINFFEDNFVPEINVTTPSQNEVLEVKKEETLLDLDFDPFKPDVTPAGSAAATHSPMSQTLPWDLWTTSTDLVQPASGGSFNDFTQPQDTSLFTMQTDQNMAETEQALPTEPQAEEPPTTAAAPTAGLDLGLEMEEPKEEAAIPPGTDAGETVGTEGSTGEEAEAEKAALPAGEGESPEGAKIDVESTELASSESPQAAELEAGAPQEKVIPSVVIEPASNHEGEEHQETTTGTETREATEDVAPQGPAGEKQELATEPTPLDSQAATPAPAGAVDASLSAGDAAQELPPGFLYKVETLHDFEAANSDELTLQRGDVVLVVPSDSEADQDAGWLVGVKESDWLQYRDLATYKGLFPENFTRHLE
Protocol: as §3
A common characteristic of most binding sites for SH3 domains is the presence of the core amino acid motif PxxP, which is often followed or preceded by a basic Arg residue. […]
The binding site of amphiphysin I has previously been mapped to a single site, site 9 (FIG. 8), within the dynamin I-PRD (Grabs et al. 1997; Vallis et al. 1999). […] However, it is full-length amphiphysin I being detected in the present study. […]

T2 sequence (O35179 whole entry): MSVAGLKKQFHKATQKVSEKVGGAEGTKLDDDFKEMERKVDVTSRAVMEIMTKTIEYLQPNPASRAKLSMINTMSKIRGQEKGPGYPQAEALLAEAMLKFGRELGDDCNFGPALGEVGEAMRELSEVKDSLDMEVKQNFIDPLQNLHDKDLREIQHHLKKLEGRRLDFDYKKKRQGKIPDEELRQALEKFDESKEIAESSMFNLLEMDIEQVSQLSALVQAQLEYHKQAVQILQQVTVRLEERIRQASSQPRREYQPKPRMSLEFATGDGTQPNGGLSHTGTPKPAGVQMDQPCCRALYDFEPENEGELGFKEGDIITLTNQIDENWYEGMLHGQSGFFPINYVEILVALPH
T1 sequence (Q9Z0W5 whole entry): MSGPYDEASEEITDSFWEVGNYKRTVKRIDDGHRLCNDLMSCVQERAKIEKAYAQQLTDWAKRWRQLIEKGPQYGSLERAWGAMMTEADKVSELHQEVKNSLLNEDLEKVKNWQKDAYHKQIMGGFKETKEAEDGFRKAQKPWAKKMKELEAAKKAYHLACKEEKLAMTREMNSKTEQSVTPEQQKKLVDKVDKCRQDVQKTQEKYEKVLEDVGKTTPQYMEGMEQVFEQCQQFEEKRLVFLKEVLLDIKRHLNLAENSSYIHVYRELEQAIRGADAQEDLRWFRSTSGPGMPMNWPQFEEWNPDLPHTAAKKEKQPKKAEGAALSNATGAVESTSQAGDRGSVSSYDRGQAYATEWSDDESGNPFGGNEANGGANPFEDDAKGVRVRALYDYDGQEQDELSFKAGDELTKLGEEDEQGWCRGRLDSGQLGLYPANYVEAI

Substance	inhibition of SV turnover ([1]; peptide 250 μM)	SV turnover ([1]; peptide 250 μM, 30 min preincubation, FM2-10 loading with 30 mM KCl)	retrieval efficiency (SV turnover/exocytosis) ([1]; using data from either exocytosis assay, value below one = selective SVE inhibition)	KCl-evoked Ca2+-dependent glutamate release [2]	FM2-10 unloading [3]	inhibition of FM2-10 accumulation in SVs [4]	FM2-10 accumulation in purified SVs (Ca2+-dependent) ([4]; n=3, mean ± s.e.m.)	endocytosis of transferrin (Tfn), RME [5]	Syndapin I binding to DynI-PRD [6]	inhibitory effect on endophilin I binding (relative to syndapin I) [7]	effect on binding to p85 [8]	peptide concentration needed to inhibit amphiphysin I binding, relative [9]	effect on amphiphysin I binding ([9]; later judged a non-specific artefact of Arg/Pro-rich peptide)
DynI769-784EE: Dynamin I phospho-box mimetic peptide (residues 769-784), EE mutant, tagged with penetratin heptapeptide RRMKWKK (RRMKWKKPAGRREPTSEPTPQRR; listed as Rattus norvegicus)	less than 20%	81.1±2.4 % of control	little effect	90.2±9.5 % of control	82.3±0.6 % of control	no significant effect	90.7±7.1 % of control	without effect	–	–	–	–	–
RRAPAVPPARPGSR (listed as Rattus norvegicus) [DynI783-796, Peptide corresponding to site 2 and site 3 region of dynamin I PRD]	–	–	–	–	–	–	–	–	greatly reduced in a concentration-dependent manner	five-fold weaker inhibitory effect	little effect	10 times higher peptide concentrations	inhibitory effect
